Source: patent publication US7084133B2, “Dicarba-closo-dodecaborane derivatives” (priority 2001, dated 2006)

Tested on: promyelocytic leukemia strain HL-60
Test: Test for induction of cell differentiation in HL-60 cells (NBT reducing ability), compound alone or with coexistence of VD3
Format: cell-based
Conditions: compound alone
Protocol: Cell differentiation-inducing action was examined for each of the compounds obtained in the examples alone or with the coexistence of 1×10^−8 M1α,25-dihydroxyvitamin D3 (VD3). According to the method described in Japanese Patent Unexamined Publication (Kokai) No. 61–76440, cell differentiation of promyelocytic leukemia strain HL-60 into granulocytic series was determined based on morphological change and measurement of ability to reduce nitroblue tetrazolium (NBT). The values in the table indicate ratios (%) of differentiated cells calculated from the NBT reducing ability, and the row represented by “VD3” indicates the results obtained by using vitamin D3.

In the case of `C=C1/C(=C\C=C2/CCC[C@]3(C)[C@@H]([C@H](C)CCCC(C)(C)O)CC[C@@H]23)C[C@@H](O)C[C@@H]1O` [VD3, 1α,25-dihydroxyvitamin D3], the “ratios (%) of differentiated cells calculated from the NBT reducing ability” value (Log Concentration (M) −7) is reported as 75%, the “ratios (%) of differentiated cells calculated from the NBT reducing ability” value (Log Concentration (M) −8) is reported as 41% and the “ratios (%) of differentiated cells calculated from the NBT reducing ability” value (Log Concentration (M) −9) is reported as 7%.
